Results reported in US5760092A, “Allocolchinones and uses thereof” (Brandeis University, priority 1996, dated 1998).
Values joined by “and” are separate entries in the source; they are usually repeats but may differ in a detail not shown here. Equal entries are not always repeated. “Also recorded” adds a separate entry of the source. Where two headings read alike, the source gives them in different places.

Columns and labels:
[1] = system: SF-539 CNS cancer cells
[2] = system: SNB-75 CNS cancer cells
[3] = system: MCF7/ADR-RES breast cancer cells; experiment: cells; format: cell-based
[4] = system: HS 578T breast cancer cells; experiment: cells; settings: Homo sapiens
[5] = system: HOP-62 non-small cell lung cancer cells
[6] = system: MOLT-4 leukemia cells
[7] = system: SNB-19 CNS cancer cells
[8] = system: OVCAR-3 ovarian cancer cells; experiment: cells; settings: Homo sapiens
[9] = system: HOP-62 non-small cell lung cancer cells; experiment: cells; settings: Homo sapiens
[10] = system: HOP-92 non-small cell lung cancer cells; experiment: cells; settings: Homo sapiens
[11] = system: OVCAR-3 ovarian cancer cells
[12] = system: tumor cell lines; experiment: cells; format: cell-based
[13] = system: SK-OV-3 ovarian cancer cells; experiment: cells; settings: Homo sapiens
[14] = system: HS 578T breast cancer cells
[15] = system: CAKI-1 renal cancer cells; experiment: cells; settings: Homo sapiens
[16] = system: HOP-92 non-small cell lung cancer cells
[17] = system: OVCAR-8 ovarian cancer cells
[18] = system: A498 renal cancer cells; experiment: cells; settings: Homo sapiens
[19] = system: tubulin; format: biochemical, calf; settings: in vitro; read-out: LC50 (inhibition of microtubule assembly in vitro)
[20] = system: SF-268 CNS cancer cells
[21] = system: RXF-393 renal cancer cells; experiment: cells; settings: Homo sapiens; for GI50: RXF 393; for activity at 10 µM: RXF 393, read-out: Percent Growth, log10 conc -5.0; for activity at 1 µM: RXF 393, read-out: Percent Growth, log10 conc -6.0; for activity at 0.1 µM: RXF 393, read-out: Percent Growth, log10 conc -7.0; for activity at 0.01 µM: RXF 393, read-out: Percent Growth, log10 conc -8.0
[22] = system: A498 renal cancer cells
[23] = system: SK-OV-3 ovarian cancer cells
[24] = system: SF-295 CNS cancer cells; experiment: cells; settings: Homo sapiens
[25] = system: RXF-393 renal cancer cells
[26] = system: U251 CNS cancer cells
[27] = system: SF-295 CNS cancer cells

## CCCC(=O)NC1CCc2cc(OC)c(OC)c(OC)c2-c2ccc(C(C)=O)cc21 (centres unmarked)
[1]
  GI50: < 10 nM
  TGI: 12.9 nM
[1]; human, sf-539 cns cancer cells
  CC50: > 100000 nM
[1]; log10 conc -4.0, 100 µM
  Percent Growth: -8% and 1%
[1]; log10 conc -5.0, 10 µM
  Percent Growth: -13% and -12%
[1]; log10 conc -6.0, 1 µM
  Percent Growth: -8% and -16%
[1]; log10 conc -7.0, 0.1 µM
  Percent Growth: -13% and -11%
[1]; log10 conc -8.0
  Percent Growth: 2%
[1]; log10 conc -8.0, 0.01 µM
  Percent Growth: -8%
[2]
  GI50: < 10 nM
[2]; human, snb-75 cns cancer cells
  CC50: > 100000 nM
[2]; log10 conc -4.0, 100 µM
  Percent Growth: 18%
[2]; log10 conc -8.0
  Percent Growth: -28%
[3]; Homo sapiens, MCF7
  GI50: < 10 nM
[3]; log10 conc -4.0, 100 µM
  Percent Growth: -22% and -23%
[4]
  GI50: < 10 nM
[4]; read-out: LC50
  CC50: > 100000 nM
[4]; read-out: Percent Growth, log10 conc -4.0
  activity at 100 µM: 6%
[4]; read-out: Percent Growth, log10 conc -5.0
  activity at 10 µM: 26%
[4]; read-out: Percent Growth, log10 conc -6.0
  activity at 1 µM: 26%
[4]; read-out: Percent Growth, log10 conc -7.0
  activity at 0.1 µM: 22%
[5]
  TGI: > 100000 nM
[5]; log10 conc -4.0, 100 µM
  Percent Growth: 34%
[5]; log10 conc -5.0, 10 µM
  Percent Growth: 44%
[5]; log10 conc -6.0, 1 µM
  Percent Growth: 34%
[5]; log10 conc -7.0, 0.1 µM
  Percent Growth: 25% and 46%
[6]
  GI50: < 10 nM
  TGI: > 100000 nM
[6]; human, molt-4 leukemia cells
  CC50: > 100000 nM
[6]; log10 conc -4.0, 100 µM
  Percent Growth: 2% and 6%
[6]; log10 conc -5.0
  Percent Growth: 9%
[6]; log10 conc -6.0, 1 µM
  Percent Growth: 12% and 8%
[6]; log10 conc -7.0, 0.1 µM
  Percent Growth: 12% and 8%
[6]; log10 conc -8.0, 0.01 µM
  Percent Growth: 16% and 9%
[7]
  GI50: < 10 nM
[7]; human, snb-19 cns cancer cells
  CC50: > 100000 nM
[7]; log10 conc -4.0, 100 µM
  Percent Growth: 19%
[7]; log10 conc -6.0, 1 µM
  Percent Growth: 13% and 26%
[7]; log10 conc -8.0, 0.01 µM
  Percent Growth: 18% and 25%
[8]; OVCAR-3
  GI50: < 10 nM
[8]; OVCAR-3, read-out: LC50
  CC50: > 100000 nM
[9]; HOP-62
  GI50: < 10 nM
[9]; HOP-62, read-out: LC50
  CC50: > 100000 nM
[9]; HOP-62, read-out: Percent Growth, log10 conc -4.0
  activity at 100 µM: 43%
[9]; HOP-62, read-out: Percent Growth, log10 conc -5.0
  activity at 10 µM: 41%
[9]; HOP-62, read-out: Percent Growth, log10 conc -6.0
  activity at 1 µM: 36%
[10]; HOP-92
  GI50: 17.6 nM
[10]; HOP-92, read-out: LC50
  CC50: > 100000 nM
[11]
  TGI: < 10 nM
[11]; log10 conc -4.0, 100 µM
  Percent Growth: -30%
[11]; log10 conc -5.0
  Percent Growth: -21%
[11]; log10 conc -7.0, 0.1 µM
  Percent Growth: -12%
[11]; log10 conc -8.0, 0.01 µM
  Percent Growth: -16% and -19%
[12]
  GI50: < 10 nM
  activity in the NCI screen: activity similar to 7-acetamidoallocolchinone; also recorded: active
[13]; SK-OV-3
  GI50: < 10 nM
[13]; SK-OV-3, read-out: LC50
  CC50: > 100000 nM
[14]
  TGI: > 100000 nM
[14]; log10 conc -5.0, 10 µM
  Percent Growth: 41%
[14]; log10 conc -6.0, 1 µM
  Percent Growth: 43%
[14]; log10 conc -7.0, 0.1 µM
  Percent Growth: 31%
[15]; CAKI-1
  GI50: < 10 nM
[15]; CAKI-1, read-out: LC50
  CC50: > 100000 nM
[16]
  GI50: < 10 nM
  TGI: > 100000 nM
[17]
  GI50: < 10 nM
  TGI: > 10 nM
[17]; human, ovcar-8 ovarian cancer cells
  CC50: > 100000 nM
[18]; A498
  GI50: 10.4 nM
[18]; A498, read-out: LC50
  CC50: 50000 nM
[19]
  IC50: 600 nM
[20]
  GI50: < 10 nM
[20]; human, sf-268 cns cancer cells
  CC50: > 100000 nM
[20]; log10 conc -5.0, 10 µM
  Percent Growth: 14% and 25%
[20]; log10 conc -6.0, 1 µM
  Percent Growth: 18% and 30%
[20]; log10 conc -7.0, 0.1 µM
  Percent Growth: 29% and 31%
[20]; log10 conc -8.0, 0.01 µM
  Percent Growth: 43% and 32%
[21]
  GI50: < 10 nM
  activity at 10 µM: 30%
  activity at 1 µM: 39%
  activity at 0.1 µM: 36%
  activity at 0.01 µM: 18%
[21]; RXF 393, read-out: LC50
  CC50: > 100000 nM
[22]
  GI50: < 10 nM
[22]; human, a498 renal cancer cells
  CC50: > 100000 nM
[22]; log10 conc -6.0, 1 µM
  Percent Growth: -40%
[22]; log10 conc -8.0
  Percent Growth: 13%
[23]; log10 conc -5.0
  Percent Growth: -19%
[23]; log10 conc -7.0, 0.1 µM
  Percent Growth: 3%
[24]; SF-295
  GI50: < 10 nM
[24]; SF-295, read-out: LC50
  CC50: > 100000 nM
[24]; SF-295, read-out: Percent Growth, log10 conc -4.0
  activity at 100 µM: 21%
[24]; SF-295, read-out: Percent Growth, log10 conc -5.0
  activity at 10 µM: 10%
[25]
  TGI: > 100000 nM
[25]; log10 conc -5.0, 10 µM
  Percent Growth: 26%
[25]; log10 conc -6.0, 1 µM
  Percent Growth: 40%
[25]; log10 conc -8.0, 0.01 µM
  Percent Growth: 29%
[26]
  GI50: < 10 nM
[26]; human, u251 cns cancer cells
  CC50: > 100000 nM
[26]; log10 conc -5.0
  Percent Growth: 5%
[26]; log10 conc -6.0, 1 µM
  Percent Growth: 16% and 7%
[26]; log10 conc -7.0, 0.1 µM
  Percent Growth: -16%
[26]; log10 conc -8.0, 0.01 µM
  Percent Growth: 1% and 4%
[27]
  TGI: > 100000 nM
[27]; log10 conc -4.0, 100 µM
  Percent Growth: 19%
[27]; log10 conc -5.0, 10 µM
  Percent Growth: 12%

## COc1cc2c(c(OC)c1OC)-c1ccc(C(C)=O)cc1C(N)CC2 (centres unmarked) [7-Amino-allocolchinone]
[19]
  IC50: 3000 nM

## COc1cc2c(c(OC)c1OC)-c1ccc(OC)c(=O)cc1[C@@H](NC(C)=O)CC2 [Colchicine, reference compound]
[6]
  GI50: 35.6 nM
[6]; log10 conc -4.0, 100 µM
  Percent Growth: 1%
[6]; log10 conc -5.0
  Percent Growth: 0%
[6]; log10 conc -6.0, 1 µM
  Percent Growth: 1%
[6]; log10 conc -8.0
  Percent Growth: 98%
[17]; log10 conc -4.0, 100 µM
  Percent Growth: -39%
[17]; log10 conc -8.0
  Percent Growth: 99%
[21]
  GI50: < 10 nM
  activity at 10 µM: 13%
  activity at 1 µM: 9%
  activity at 0.1 µM: 7%
  activity at 0.01 µM: 48%
